This note sets out measurements from US7078556B2, “Antibiotics Cyan-416 A, Cyan-416 B, Cyan-416 C, Cyan-416 D and Cyan-416 E, and ester derivatives of Cyan-416 B” (Wyeth Holdings Corporation, priority 2002, dated 2006).

Molecules are shown by their SMILES. Converted amounts (≈) assume the structure as drawn.

The test system of the first test is Candida albicans GC 3066. Kind of test: MIC by broth dilution. Format: cell-based. As to conditions: GC3066, 18 h, Table 2, 18 hours at 35° C. On the procedure: (§1) The minimum inhibitory concentration (MIC), the lowest concentration of the antibiotic which inhibits growth of the test organism, is determined by the broth dilution method using Muller-Hinton II […] (Baltimore Biological Laboratories) following the recommendations of the National Committee for Clinical Laboratory Standards [Methods for dilution antimicrobial susceptibility tests for bacteria that grow aerobically. Approved standard M7-A2. National Committee for Clinical Laboratory Standards, Villanova, Pa].
(§2) An inoculum level of 5×10^5 CFU/ml, and a range of antibiotic concentrations (64–0.06 μg/ml) is used. The MIC is determined after the microtiter plates are incubated for 18 hours at 35° C. in an ambient air incubator. The test organisms comprise a spectrum of the Gram-positive bacteria Staphylococcus aureus, Streptococcus pneumoniae, and Enterococcus sp., the Gram-negative bacteria Escherichia coli, and the yeast Candida albicans. These organisms include recent clinical isolates that are resistant to methicillin and vancomycin. MIC data of Cyan-416 A–E are listed in Table 1 and MIC data of ester derivatives of Cyan-416 B (Formula I) are listed in Table 2.
Regarding `CCCCC(=O)O[C@H]1c2cc(C)cc(O)c2C(O)=C2C(=O)[C@H]3C=C[C@]21Cc1cc(O)c(C(=O)c2c(O)ccc(O)c2C(=O)OC)c(O)c13` [Example 8, Cyan-416 B pentanoate], the MIC was above 128 µg/mL.

The next test deals with Enterococcus faecalis GC 2242. Briefly: MIC by broth dilution. Format: cell-based. As to conditions: GC2242, Table 2, 18 hours at 35° C., read-out: MIC. On the procedure: as §1, §2
For the compound `CCCCC(=O)O[C@H]1c2cc(C)cc(O)c2C(O)=C2C(=O)[C@H]3C=C[C@]21Cc1cc(O)c(C(=O)c2c(O)ccc(O)c2C(=O)OC)c(O)c13` [Example 8, Cyan-416 B pentanoate], the minimal inhibitory concentration (MIC) came out at 4 µg/mL (≈ 6.09 µM).

The test system of another test is Enterococcus faecalis GC 4555. Briefly: MIC by broth dilution. The format is cell-based. The note with it: GC4555, Table 2, 18 hours at 35° C., read-out: MIC. How it is done: as §1, §2
For `CCCCC(=O)O[C@H]1c2cc(C)cc(O)c2C(O)=C2C(=O)[C@H]3C=C[C@]21Cc1cc(O)c(C(=O)c2c(O)ccc(O)c2C(=O)OC)c(O)c13` [Example 8, Cyan-416 B pentanoate], the minimal inhibitory concentration (MIC) was found to be 4 µg/mL (≈ 6.09 µM).

The next test concerns Enterococcus faecalis GC 6189. Briefly: MIC by broth dilution. The format is cell-based. The note with it: GC6189, Table 2, 18 hours at 35° C. How it is done:
as §1, §2
As for `CCCCC(=O)O[C@H]1c2cc(C)cc(O)c2C(O)=C2C(=O)[C@H]3C=C[C@]21Cc1cc(O)c(C(=O)c2c(O)ccc(O)c2C(=O)OC)c(O)c13` [Example 8, Cyan-416 B pentanoate], the MIC worked out at 4 µg/mL (≈ 6.09 µM).

The test system of another test is Enterococcus faecium 4558. Briefly: MIC by broth dilution. Format: cell-based. The note with it: Table 2, 18 hours at 35° C. On the procedure:
as §1, §2
As for `CCCCC(=O)O[C@H]1c2cc(C)cc(O)c2C(O)=C2C(=O)[C@H]3C=C[C@]21Cc1cc(O)c(C(=O)c2c(O)ccc(O)c2C(=O)OC)c(O)c13` [Example 8, Cyan-416 B pentanoate], 2 µg/mL (≈ 3.05 µM) was the least that counted as inhibitory (MIC).

The subject of the next test is Enterococcus faecium GC 2243. Briefly: MIC by broth dilution. The format is cell-based. As to conditions: GC2243, Table 2, 18 hours at 35° C. On the procedure:
as §1, §2
`CCCCC(=O)O[C@H]1c2cc(C)cc(O)c2C(O)=C2C(=O)[C@H]3C=C[C@]21Cc1cc(O)c(C(=O)c2c(O)ccc(O)c2C(=O)OC)c(O)c13` [Example 8, Cyan-416 B pentanoate]: inhibition of growth (MIC) required 4 µg/mL (≈ 6.09 µM).

In a further test the test system is Enterococcus faecium GC 4556. Briefly: MIC by broth dilution. The format is cell-based. The note with it: GC4556, Table 2, 18 hours at 35° C. How it is done:
as §1, §2
`CCCCC(=O)O[C@H]1c2cc(C)cc(O)c2C(O)=C2C(=O)[C@H]3C=C[C@]21Cc1cc(O)c(C(=O)c2c(O)ccc(O)c2C(=O)OC)c(O)c13` [Example 8, Cyan-416 B pentanoate] registered an MIC of 4 µg/mL (≈ 6.09 µM).

Another test deals with Escherichia coli GC 2203. Kind of test: MIC by broth dilution. The note with it: GC2203, 18 h, Table 2, Escherichia coli coli GC 2203, 18 hours at 35° C. Format: cell-based. On the procedure:
as §1, §2
`CCCCC(=O)O[C@H]1c2cc(C)cc(O)c2C(O)=C2C(=O)[C@H]3C=C[C@]21Cc1cc(O)c(C(=O)c2c(O)ccc(O)c2C(=O)OC)c(O)c13` [Example 8, Cyan-416 B pentanoate] displayed an MIC above 128 µg/mL.

A further test relates to Escherichia coli GC 4560 (imp). Briefly: MIC by broth dilution. Format: cell-based. As to conditions: Escherichia coli, 18 h. On the procedure: as §1, §2
In turn, `CCCCC(=O)O[C@H]1c2cc(C)cc(O)c2C(O)=C2C(=O)[C@H]3C=C[C@]21Cc1cc(O)c(C(=O)c2c(O)ccc(O)c2C(=O)OC)c(O)c13` [Example 8, Cyan-416 B pentanoate] yielded a minimal inhibitory concentration (MIC) of 8 µg/mL (≈ 12.2 µM).

For a further test, the system named is Staphylococcus aureus GC 1131. Briefly: MIC by broth dilution. The note with it: GC1131, Table 2, 18 hours at 35° C., read-out: MIC. Format: cell-based. On the procedure:
as §1, §2
In the case of `CCCCC(=O)O[C@H]1c2cc(C)cc(O)c2C(O)=C2C(=O)[C@H]3C=C[C@]21Cc1cc(O)c(C(=O)c2c(O)ccc(O)c2C(=O)OC)c(O)c13` [Example 8, Cyan-416 B pentanoate], the minimum inhibitory concentration (MIC) stood at 4 µg/mL (≈ 6.09 µM).

The test system of another test is Staphylococcus aureus GC 2216. Kind of test: MIC by broth dilution. Format: cell-based. The note with it: GC2216, Table 2, 18 hours at 35° C., read-out: MIC. On the procedure: as §1, §2
Turning to `CCCCC(=O)O[C@H]1c2cc(C)cc(O)c2C(O)=C2C(=O)[C@H]3C=C[C@]21Cc1cc(O)c(C(=O)c2c(O)ccc(O)c2C(=O)OC)c(O)c13` [Example 8, Cyan-416 B pentanoate], the minimal inhibitory concentration (MIC) was 4 µg/mL (≈ 6.09 µM).

The next test deals with Staphylococcus aureus GC 4541. Briefly: MIC by broth dilution. Format: cell-based. The note with it: GC4541, Table 2, 18 hours at 35° C. On the procedure:
as §1, §2
With `CCCCC(=O)O[C@H]1c2cc(C)cc(O)c2C(O)=C2C(=O)[C@H]3C=C[C@]21Cc1cc(O)c(C(=O)c2c(O)ccc(O)c2C(=O)OC)c(O)c13` [Example 8, Cyan-416 B pentanoate], the lowest concentration to inhibit growth (MIC) was 4 µg/mL (≈ 6.09 µM).

Another test has as its system Staphylococcus aureus GC 4543. Kind of test: MIC by broth dilution. Format: cell-based. As to conditions: GC4543, Table 2, 18 hours at 35° C. On the procedure: as §1, §2
With `CCCCC(=O)O[C@H]1c2cc(C)cc(O)c2C(O)=C2C(=O)[C@H]3C=C[C@]21Cc1cc(O)c(C(=O)c2c(O)ccc(O)c2C(=O)OC)c(O)c13` [Example 8, Cyan-416 B pentanoate], the lowest concentration to inhibit growth (MIC) was 4 µg/mL (≈ 6.09 µM).

In a further test the test system is Staphylococcus haemolyticus GC 4547. Kind of test: MIC by broth dilution. The note with it: GC4547, Table 2, 18 hours at 35° C. Format: cell-based. How it is done: as §1, §2
Regarding `CCCCC(=O)O[C@H]1c2cc(C)cc(O)c2C(O)=C2C(=O)[C@H]3C=C[C@]21Cc1cc(O)c(C(=O)c2c(O)ccc(O)c2C(=O)OC)c(O)c13` [Example 8, Cyan-416 B pentanoate], it took 4 µg/mL (≈ 6.09 µM) to inhibit growth (MIC).

The test system of a further test is Streptococcus pneumoniae GC 1894. Briefly: MIC by broth dilution. The format is cell-based. The note with it: GC1894, Table 2, 18 hours at 35° C. On the procedure: as §1, §2
`CCCCC(=O)O[C@H]1c2cc(C)cc(O)c2C(O)=C2C(=O)[C@H]3C=C[C@]21Cc1cc(O)c(C(=O)c2c(O)ccc(O)c2C(=O)OC)c(O)c13` [Example 8, Cyan-416 B pentanoate] returned a minimal inhibitory concentration (MIC) of 8 µg/mL (≈ 12.2 µM).

Another test deals with Streptococcus pneumoniae GC 6242. Briefly: MIC by broth dilution. Format: cell-based. The note with it: GC6242, Table 2, 18 hours at 35° C. On the procedure: as §1, §2
Take `CCCCC(=O)O[C@H]1c2cc(C)cc(O)c2C(O)=C2C(=O)[C@H]3C=C[C@]21Cc1cc(O)c(C(=O)c2c(O)ccc(O)c2C(=O)OC)c(O)c13` [Example 8, Cyan-416 B pentanoate]: the MIC is 8 µg/mL (≈ 12.2 µM).
